# Test results taken from patent US7691806B2, “Repeat sequence protein polymer active agent congjugates, methods and uses” (priority 2003, dated 2010).
# How the values were obtained:
# Bacillus subtilis 168 = assay: Test-tube based antimicrobial assay of purified AMP-SELP fusions; type: cell-based; conditions: 1.25 mg/ml in water, equal volume of 1:500 diluted culture, 37° C., after 4 hours
# Procedure: (§1) Culture supernatant samples from post-induction time-points from a fermentation of Cecropin A-Melettin (CAM) fused to the N-terminus of SELP47K were tested for growth inhibition of E. coli and B. subtilis. […] Purified CAM-SELP47K (SEQ. ID. NO.32) and MBI-SELP47K (SEQ. ID. NO. 33) biomaterials were similarly tested for their antimicrobial activity. Lyophilized material was dissolved in water at 1.25 mg/ml and used in a test-tube based assay performed as follows: Bacillus subtilis 168 and Escherichia coli MG1655 were each grown from single colonies in 5 ml volumes of LB in test tubes, 37° C., 250 rpm, 16 hrs. Cultures were diluted 1:500 in Terrific broth. Equal volumes of diluted culture and purified AMP-SELP fusions described above were combined in sterile glass test-tubes (1 ml total volume in 5 ml tubes), in duplicate, and incubated at 37° C., 250 rpm. Purified SELP47K was used as a negative control.
# Escherichia coli MG1655 = assay: as above; type: cell-based; conditions: 1.25 mg/ml in water, equal volume of 1:500 diluted culture, 37° C., after 4 hours
# Procedure: as §1
substance,measurement,setting,value
"SELP47K: genetically engineered silk-elastin polymer, head-[(GAGAGS)2(GVGVP)3GKGVP(GVGP)4(GAGAGS)2]13-tail (SEQ ID NO. 19), 886 amino acids",growth in tubes,Bacillus subtilis 168,growth was clearly visible
same,growth in tubes,Escherichia coli MG1655,growth was clearly visible
